Experimental data as given in patent US20200360331A1, “COMPOSITIONS COMPRISING 15-HEPE AND/OR 15-HETrE AND METHODS OF TREATING OR PREVENTING CARDIOMETABOLIC DISEASE, METABOLIC SYNDROME, AND/OR RELATED DISEASES” (Afimmune Limited, priority 2019, published 2020).

Assays:
[1] = test system: UUO mice; test: UUO study: kidney hydroxyproline content; format: in vivo, C57BL/6 mice
Protocol: UUO Surgery: On day 0 of the study, UUO surgery was performed on mice under pentobarbital sodium anesthesia. The mouse's hair was first shaved and then abdomen cut open to exteriorize the mouse's left ureter. The ureter was ligated 4-0 nylon sutures at two points. The mouse's peritoneum and skin were then closed with sutures, and the mouse transferred to a clean cage until recovered from the anesthesia. Sham operated mice had their left ureter exposed but not ligated.
Measurement of Kidney Biochemistry: To quantify kidney hydroxyproline content, frozen left kidney samples were processed by an alkaline-acid hydrolysis method as follows: kidney samples were dissolved in 2 normal (N) sodium hydroxide (NaOH) at 65° C. and autoclaved at 121° C. for 20 minutes. The lysed samples (400 μL) were acid-hydrolyzed with 400 μL of 6N hydrochloride acid (HCl) at 121° C. for 20 minutes, and neutralized with 400 μL of 4N NaOH containing 10 mg/mL of activated carbon. An AC buffer (e.g., 2.2M acetic acid/0.48M citric acid, 400 μL) was added to the samples, followed by centrifugation to collect the supernatant. A standard curve of hydroxyproline was constructed with serial dilutions of trans-4-hydroxy-L-proline (Sigma-Aldrich, USA) starting at 16 μg/mL. The prepared samples and standards (e.g., each 400 μL) were mixed with 400 μL chloramine T solution (Wako Pure Chemical Industries, Japan) and incubated for 25 minutes at room temperature. The samples were then mixed with Ehrlich's solution (e.g., 400 μL) and heated at 65° C. for 20 minutes to develop the color. After samples were cooled on ice and centrifuged to remove precipitates, the optical density of each supernatant was measured at 560 nanometers (nm). The concentrations of hydroxyproline were calculated from the hydroxyproline standard curve. Protein concentrations of kidney samples were determined using a bicinchoninic (BCA) protein assay kit (Thermo Fisher Scientific, USA) and used to normalize the calculated hydroxyproline values. Kidney hydroxyproline contents were expressed as microgram (μg) per mg protein.

[2] = test system: TIMP-1; test: UUO study: quantitative RT-PCR of kidney, TIMP-1; format: in vivo, C57BL/6 mice; details: UUO mice kidney
Protocol: Quantitative RT-PCR: Total ribonucleic acid (RNA) was extracted from kidney samples using RNAiso (Takara Bio, Japan) according to the manufacturer's instructions. One μg of RNA was reverse-transcribed using a reaction mixture containing […] (mM) of magnesium chloride (MgCl2) (F. Hoffmann-La Roche, Switzerland), 40 U RNase inhibitor (Toyobo, Japan), 0.5 mM dNTP (Promega, USA), 6.28 μM random hexamer (Promega), 5× first strand buffer (Promega), 10 mM dithiothreitol (Invitrogen, USA) and 200 U MMLV-RT (Invitrogen) in a final volume of 20 μL. The reaction was carried out for 1 hour at 37° C., followed by 5 minutes at 99° C. Real-time PCR was performed using real-time PCR DICE and TB Green™ Premix Ex Taq™ II (Takara Bio). To calculate the relative […] (mRNA) expression level, the expression of each gene (e.g., α-SMA, TIMP-1, TGF-β and Collagen Type 1) was normalized to that of reference gene 36B4 (gene symbol: Rplp0). Information regarding the PCR-primer sets and the plate layout are described in Tables 1 and 2.

[3] = test system: NAFLD patients; test: Phase IIa NAFLD study: metabolic parameters and insulin resistance; format: in vivo, human
Protocol: (§1) The study was planned to include 96 evaluable patients with 32 patients randomized per treatment group.
HOMA-IR/Adipo-IR: HOMA-IR/Adipo-IR levels are a method of measuring insulin resistance. HOMA-IR is calculated by multiplying fasting plasma insulin (FPI) by fasting plasma glucose (FPG), then dividing by the constant 405. Adipo-IR is calculated by multiplying fasting non-esterified fatty acids (NEFA)×fasting insulin. Blood samples were taken to assess HOMA-IR and Adipo-IR at Visit 2/Baseline, Visit 3/Week 2, Visit 4/Week 4, Visit 6/Week 8, Visit 8/Week 12, Visit 10/Week16 and Follow up Visit 11/Week 20. All subjects were required to have been fasted for a minimum of 8 hours prior to blood sampling. If subjects had not fasted for a minimum of 8 hours, the duration of fasting time was recorded, and subjects encouraged to fast appropriately for the next clinical visit.
(§2) Exploratory analysis: The exploratory analysis included analysis of lipid and metabolic parameters including total cholesterol, triglycerides, very low-density lipoprotein cholesterol (VLDL-C), low density lipoprotein cholesterol (LDL-C), high density lipoprotein cholesterol (HDL-C), non-high-density lipoprotein cholesterol (non-HDL-C), remnant-like particle cholesterol (RLP-C), fasting glucose, insulin, free fatty acids and hemoglobin A1C (HbA1C). Additional exploratory analysis included high throughput lipidomics and proteomics.

[4] = test system: NAFLD patients; test: Phase IIa NAFLD study: OWL Liver Care diagnostic test for NASH; format: in vivo, human
Excerpt: as §1
OWL Liver Care is a test that was developed based on the plasma lipidomics in biopsy-confirmed NASH patients and provides high predictive values. OWL Liver Care has an area under the curve (AUC) of 0.88 for distinguishing NAFLD and normal liver patients and an AUC of 0.79 for distinguishing NAFLD without steatohepatitis and NASH patients.

[5] = test system: NAFLD patients; test: Phase IIa NAFLD study: proteomics of blood samples; format: in vivo, human
Excerpt: as §2, with “The study was planned to include 96 evaluable patients with 32 patients randomized per treatment group. […] Exploratory” for “Exploratory”

[6] = NAFLD patients, 1 g or 2 g per day
[7] = baseline to Week 16, 1 g or 2 g per day vs placebo
[8] = 1 g per day, baseline diagnosis NASH
[9] = 1 g per day, baseline diagnosis No NAFLD
[10] = 1 g per day, baseline diagnosis Steatosis
[11] = 2 g per day, baseline diagnosis NASH
[12] = 2 g per day, baseline diagnosis No NAFLD
[13] = 2 g per day, baseline diagnosis Steatosis

SMILES: CC/C=C\CC(O)/C=C/C=C\C/C=C\C/C=C\CCCC(=O)O (stereo not shown) [DS102, 15-hydroxy-eicosa-5Z,8Z,11Z,13E,17Z-pentaenoic acid]
- kidney hydroxyproline contents compared with the Vehicle group ([1]; 50 mg/kg): significant decrease
- Kidney hydroxyproline ([1]; 50 mg/kg PO QD Day 0-13, Day 14): 8.47 ± 2.08 μg/mg total protein
- kidney hydroxyproline contents compared with the Vehicle group ([1]; 500 mg/kg): significant decreases
- Kidney hydroxyproline ([1]; 500 mg/kg PO QD Day 0-13, Day 14): 8.59 ± 1.99 μg/mg total protein
- TIMP-1 gene expression ([2]; relative mRNA normalized to 36B4, 50 mg/kg PO QD Day 0-13): 138.30 ± 30.39
- TIMP-1 gene expression ([2]; relative mRNA normalized to 36B4, 500 mg/kg PO QD Day 0-13): 124.80 ± 28.60
- insulin sensitivity and glycemic control [3, 6]: improvement
- markers of metabolic overload [3, 6]: statistically significant reduction
- insulin resistance indices (HOMA-IR and adipo-IR levels) ([3]; Week 16, 1 g or 2 g per day vs placebo): reduction in HOMA-IR and adipo-IR levels
- insulin resistance indices (HOMA-IR and adipo-IR levels) ([3]; Week 16, 2 g, Per Protocol Set (PPS)): significant improvements
- HbA1c levels, glycemic control [3, 7]: clinically significant improvements
- insulin, glucose, and free fatty acid levels [3, 7]: reduction
- OWL test change in diagnosis (Week 16 vs. baseline): Improvement, patients [4, 8]: 5
- OWL test change in diagnosis (Week 16 vs. baseline): Stable, patients [4, 8]: 14
- OWL test change in diagnosis (Week 16 vs. baseline): Stable, patients [4, 9]: 3
- OWL test change in diagnosis (Week 16 vs. baseline): Worsening, patients [4, 9]: 1
- OWL test change in diagnosis (Week 16 vs. baseline): Stable, patients [4, 10]: 2
- OWL test change in diagnosis (Week 16 vs. baseline): Worsening, patients [4, 10]: 3
- OWL test change in diagnosis (Week 16 vs. baseline): Improvement, patients [4, 11]: 5
- OWL test change in diagnosis (Week 16 vs. baseline): Stable, patients [4, 11]: 7
- OWL test change in diagnosis (Week 16 vs. baseline): Stable, patients [4, 12]: 2*, **
- OWL test change in diagnosis (Week 16 vs. baseline): Worsening, patients [4, 12]: 1
- OWL test change in diagnosis (Week 16 vs. baseline): Improvement, patients [4, 13]: 1
- OWL test change in diagnosis (Week 16 vs. baseline): Stable, patients [4, 13]: 9
- OWL test change in diagnosis (Week 16 vs. baseline): Worsening, patients [4, 13]: 4
- OWL liver care diagnosed NASH ([4]; Week 16, dose dependent, compared to placebo): significantly improved and normalized
- TR protein ([5]; 1 g): significant reductions
- NASH drug development targets CCR2/5 signaling, Galectin3, AOC3 ([5]; 2 g): decreased
- number of markers (inflammation, fibrosis, lipid metabolism, apoptosis, chemotaxis) significantly downregulated ([5]; 2 g, panel of greater than 350 protein biomarkers): over 150
- inflammatory and pro-fibrotic proteins (protein expression) ([5]; 2 g, Bonferroni: PAI-1, TIMP-1, DPP4, TLT2, CCL16, MCP-1, SAA4, PI3/Elafin, TR, LILRB1, TNRSF11A, linear model: TLT2, AOC3, PRSS2): decreased
- expression of multiple circulating chemokines ([5]; NAFLD patients): decreased
- expression of multiple proteins associated with increased cardiovascular risk ([5]; NAFLD patients): decreased
- expression of multiple tumor necrosis factor receptor superfamily members ([5]; NAFLD patients): decreased
- expression of multiple vascular adhesion molecules ([5]; NAFLD patients): decreased
